Like-named read-outs stand apart in the source and are kept apart here.
Tests used:
[1] = test system: PAI-1; test: Proof-of-concept study in healthy subjects: plasma PAI-1 before and after valproic acid; type: in vivo, human; conditions: p<0.05
Protocol: (§1) The effects of VPA on PAI-1 were analysed in two different proof-of-concept studies in healthy subjects as well as in patients with manifest atherosclerotic disease. […] PAI-1 plasma levels were measured in the morning at the first day of the study as well as at the end of the treatment period with VPA (see example 2 for details on the PAI-1 analysis).
In the first study, 10 healthy non-smoking white male subjects (with mean BMI of approximately 26), aged 50-70 years were included and treated with valproic acid 500 mg (Ergenyl Retard. Sanofi) twice daily during 14 days.

[2] = test system: PAI-1; test: Proof-of-concept study in patients with a history of myocardial infarction: plasma PAI-1 before and after valproic acid; type: in vivo, human; conditions: midmorning, p=0.01; for reduction in circulating plasma PAI-1 levels: 16 male patients aged 50-80 with history of myocardial infarction, valproic acid 500 mg (Ergenyl Retard, Sanofi) twice daily 28 days on top of ordinary prescription
Protocol: as §1
In the second study, 16 non-smoking white male patients, aged 50-80 years with a history of a myocardial infarction were included. On top of their ordinary prescription (beta-blocker, ACE-inhibitor, statin, aspirin) they were treated with valproic acid 500 mg (Ergenyl Retard, Sanofi), twice daily during 28 days.

[3] = test system: PAI-1; test: Intermediate endpoint study in patients with TIA/minor stroke: plasma PAI-1 levels; type: in vivo, human; conditions: 20 patients with TIA/minor stroke; 400 mg valproic acid enteric-coated tablet with delayed absorption, once daily at 11 pm for 2 weeks
Protocol: (§2) An intermediate endpoint proof-of-concept study is performed in patients with TIA/minor stroke investigated before and after treatment with Valproic acid. Valproic acid is administrated as an enteric-coated tablet with delayed absorption.
(§3) The study comprises 20 patients with TIA/minor stroke. Patients are investigated before and after oral treatment with 400 mg valproic acid once time daily at 11 pm for 2 weeks. Plasma PAI-1 levels and plasma concentrations of valproic acid is followed daily during the study period at the following time-points: 3 am, 6 am, 10 am, 16 pm, 22 pm PAI-1 levels are measured by commercially available ELISA-kits (Coaliza PA-1, Chromogenix AB) and the plasma concentration of valproic acid an metabolites thereof is analyzed according to clinical routine at the Sahlgrenska University laboratory, Gothenburg, Sweden.

[4] = Intermediate endpoint study in patients with TIA/minor stroke: plasma concentration of valproic acid; type: in vivo, human; conditions: 400 mg enteric-coated tablet with delayed absorption, oral, once daily at 11 pm, clock time
Protocol: as §2, §3

[5] = test system: PAI-1; conditions: cultured endothelial cells; no decrease of PAI-1 mRNA levels after VPA treatment; slight but significant; cited from earlier work
[6] = test system: PAI-1; conditions: in vivo model in pig (Svennerholm et al. 2014); cited from earlier work
[7] = test system: PAI-1; conditions: in vivo model in mouse (Larsson, Alwis et al. 2016); cited from earlier work

Structure (SMILES): CCCC(CCC)C(=O)O [valproic acid, 2-propylpentanoic acid]
- reduction in circulating plasma PAI-1 levels ([1]; 10 healthy non-smoking male subjects aged 50-70, valproic acid 500 mg (Ergenyl Retard, Sanofi) twice daily 14 days, mid-morning vs before treatment): more than 50%
- circulating plasma PAI-1 level after treatment ([1]; healthy male subjects, 500 mg (Ergenyl Retard) twice daily 14 days, mid-morning, from 22.2 ng/ml before treatment): 10.8 ng/mL
- reduction in circulating plasma PAI-1 levels [2]: 45%
- reduction in circulating plasma PAI-1 levels ([2]; listed as VPA): about 45%
- circulating plasma PAI-1 level after treatment ([2]; patients with history of myocardial infarction, 500 mg (Ergenyl Retard) twice daily 28 days, from 19.6 ng/ml before treatment): 11 ng/mL
- plasma PAI-1 levels lowered after the treatment [3]: approximately 30%
- time of peak plasma concentration of valproic acid [4]: peak between 3 am and 6 am
- increase in PAI-1 production [5]: 30%
- effects on plasma PAI-1 [6]: did not detect any effects
- effects on plasma PAI-1 [7]: did not detect any effects

Reference: patent US12023311B2, “Delayed release pharmaceutical formulations comprising valproic acid, and uses thereof” (Cereno Scientific AB, priority 2016, dated 2024)
